Assays:
[1] = target: T1, m1 muscarinic receptors (Homo sapiens, UniProt P11229); test: Effect on ACh binding: ACh inhibition of 3H-NMS binding (indirect assay) on CHO cell membranes; settings: tested at 3 μg/ml; 0.15 nM 3H-NMS, 30 μM ACh, 0.2 mM GTP, pH 7.4, 30° C., two hours
T1 construct: expressed in transfected cells; host or cells: CHO (Chinese Hamster Ovary) cells, membranes
T1 sequence (P11229 1-460): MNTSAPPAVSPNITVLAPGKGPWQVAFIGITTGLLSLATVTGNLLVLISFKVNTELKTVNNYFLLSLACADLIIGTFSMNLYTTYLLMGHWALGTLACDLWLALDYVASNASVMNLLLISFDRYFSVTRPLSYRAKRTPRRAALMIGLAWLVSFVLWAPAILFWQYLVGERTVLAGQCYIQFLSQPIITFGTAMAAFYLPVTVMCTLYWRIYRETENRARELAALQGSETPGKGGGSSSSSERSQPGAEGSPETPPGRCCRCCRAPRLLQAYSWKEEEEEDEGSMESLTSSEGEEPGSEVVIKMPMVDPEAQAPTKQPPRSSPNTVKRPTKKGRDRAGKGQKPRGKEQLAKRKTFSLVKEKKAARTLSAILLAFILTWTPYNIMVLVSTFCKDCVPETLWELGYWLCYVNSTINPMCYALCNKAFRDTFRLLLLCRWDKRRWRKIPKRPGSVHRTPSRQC
Excerpt: The compounds of the present invention may be assayed for allosteric activity at m1 muscarinic receptors as described below, although the assays we describe are not necessarily exhaustive, and other assays may be employed, as desired, to establish allosterism.
A suitable cell line is CHO (Chinese Hamster Ovary), which are readily engineered to express only one receptor sub-type.
To obtain the large amount of cell membranes required, plates of 530 cm^2 culture area were used. CHO cells which express m1, m2, m3 and m4 receptors were grown separately in MEM alpha medium containing 10% newborn calf serum and antibiotics. When cells reached confluence, they were washed twice with 10 ml of 20 mM HEPES containing 10 mM EDTA (pH 7.4), scraped into the same buffer and homogenized using a Polytron (trademark) homogenizer (setting 5-6 for 5 sec×2). Membrane pellets were obtained by centrifugation (40000×g, 10 min, 4° C.) and resuspended in 20 mM HEPES-0.1 mM EDTA (pH 7.4). Centrifugation and resuspension were repeated twice to wash the cell membranes. After measurement of membrane protein, the membranes (1 or 2 mg protein/ml) were stored at -70° C.
While the direct assay measures ACh (=acetylcholine) binding only to the high affinity state, the indirect assay measures effects only at the low affinity state. This is achieved by including 0.2 mM GTP in the assay. In this assay a fixed concentration of ^3 H-NMS (roughly the Kd value) is incubated in the absence and presence of a fixed concentration of ACh (at about the IC50 value) and the effects of three concentrations of test agent are measured, again in the absence and presence of ACh.
Calculating the effects on ^3 H-NMS binding alone is as follows: binding in the presence of the agent is expressed as a percentage of binding in its absence and, if the effect is inhibitory, an IC50 is estimated graphically. The assay also contains a single high concentration of ^3 H-NMS (4 nM, about 30 times the Kd) which provides an estimate of Bmax (i.e. maximum binding).
Expressing the effect on cold ACh binding will be explained with reference to FIGS. 1a, b and c. These figures show theoretical data and the effects of the transformations described below. In FIGS. 1a and 1b ^3 H-NMS and cold ACh are present at their Kd concentrations; in FIG. 1a the agent has a negative allosteric effect on ^3 H-NMS, while in FIG. 1b it has a positive allosteric effect on ^3 H-NMS. The left panels show the amount of ^3 H-NMS specifically bound in the assay. If the affinity of ACh is reduced by the test agent, as shown in the top panels of FIGS. 1a and 1b, the inhibition by ACh will decrease, but the counts recovered will also depend on the effect of the agent on ^3 H-NMS binding alone. To calculate the effect on ACh binding the inhibitory effect of ACh is first calculated as a percent of its own control in the absence of ACh. Next it is assumed that fractional inhibition is the same as tractional occupancy, and inhibition in the presence of agent is expressed as a percentage of inhibition in the absence of agent. The effects of these transformations are shown in the centre panels. Expressing inhibition by ACh in the presence of agent as a percentage of inhibition in the absence of agent allows the effect of the agent on cold ACh binding to be seen on the same scale as the effect on ^3 H-NMS and ^3 H-ACh binding and is generally preferred.
If the concentration of ^3 H-NMS used in the indirect assay is around the Kd value or less, the transformation described above provides a qualitative and semi-quantitative measure of the agent's effect. If a higher concentration of ^3 H-NMS is used, or if the agent has a positive allosteric effect on ^3 H-NMS, then the results of this transformation may be misleading. […] It is assumed that ACh binds to a single affinity state i.e. that its inhibition curve has a slope of 1, and so an IC50 is calculated from the percentage inhibition of control binding. […]

[2] = system: muscarinic receptors; settings: reported; cited from earlier work
[3] = system: M2 muscarinic receptors in the heart; settings: Tucek et al. 1993; cited from earlier work
[4] = system: heart receptors; settings: cited from earlier work

Row | Compound | Effect on ACh Binding [1] | other results
1 | Cc1cc(CC(=O)O)c([S+](C)[O-])c2c1c1ccccc1n2Cc1ccccc1 (centres unmarked) [Example 200, (9-Benzyl-1-methylsulfinyl-4-methylcarbazol-2-yl)acetic Acid] | 3.59 | 
2 | Cc1cc(CC(=O)O)c(S(C)(=O)=O)c2c1c1ccccc1n2Cc1ccccc1 [Example 202, (9-Benzyl-1-methylsulfonyl-4-methylcarbazol-2-yl)acetic Acid] | 2.66 | 
3 | Cc1cc(CC(=O)O)c(SCc2ccccc2)c2c1c1ccccc1n2C [Example 206, (1-Benzylthio-4,9-dimethylcarbazol-2-yl)acetic Acid] | 2.13 | 
4 | CCCSc1c(CC(=O)O)cc(C)c2c3ccccc3n(C)c12 [Example 210, (4,9-Dimethyl-1-propylthiocarbazol-2-yl)acetic Acid] | 2.03 | 
5 | CSc1c(CC(=O)O)cc(C)c2c3ccccc3n(CCc3ccccc3)c12 [Example 212, [4-Methyl-1-methylthio-9-(2-phenethyl)carbazol-2-yl]acetic Acid] | 4.93 | 
6 | CSc1c(CC(=O)O)cc(C)c2c3ccccc3n(CCCc3ccccc3)c12 [Example 214, [4-Methyl-1-methylthio-9-(3-phenylpropyl)carbazol-2-yl]acetic Acid] | 4.34 | 
7 | CCCSc1c(CC(=O)O)cc(C)c2c3ccccc3n(Cc3ccccc3)c12 [Example 217, (9-Benzyl-4-methyl-1-n-propylthiocarbazol-2-yl)acetic Acid] | 3.99 | 
8 | Cc1cc(CC(=O)O)c(SC(C)C)c2c1c1ccccc1n2Cc1ccccc1 [Example 218, (9-Benzyl-4-methyl-1-i-propylthiocarbazol-2-yl)acetic Acid] | 4.91 | 
9 | CSc1c(CC(=O)O)cc(C)c2c3ccccc3n(CCc3cccc(Cl)c3)c12 [Example 229, {9-[2-(3-Chlorophenyl)ethyl]-4-methyl-1-methylthiocarbazol-2-yl}acetic Acid] | 5.79 | 
10 | CSc1c(CC(=O)O)cc(C(F)(F)F)c2c3ccccc3n(Cc3ccccc3)c12 [Example 231, (9-Benzyl-1-methylthio-4-trifluoromethyl carbazol-2-yl)acetic Acid] | 3.78 | 
11 | CSc1c(CC(=O)O)ccc2c1c1ccccc1n2Cc1ccccc1 [Example 233, (9-Benzyl-4-methylthiocarbazol-3-yl)acetic Acid] | 2.26 | 
12 | CC(C)Sc1c(CC(=O)O)cc(C(C)C)c2c3ccccc3n(Cc3ccccc3)c12 [Example 235, (9-Benzyl-4-isopropyl-1-isopropylthiocarbazol-2-yl)acetic Acid] | 2.82 | 
13 | COc1cc2c3cc1Oc1cc(ccc1O)C[C@@H]1c4c(cc(OC)c(O)c4Oc4ccc(cc4)C[C@@H]3N(C)CC2)CC[N+]1(C)C [Tubocurarine] |  | allosteric effects on antagonist binding [2]: negative allosteric effects on antagonist binding
14 | C=CC[N@@+]12CC[C@@]34c5ccccc5N5/C=C6/[C@H]7C[C@H]8[C@@]9(CC[N@@+]8(CC=C)C/C7=C/CO)c7ccccc7N(/C=C(/[C@@H](C[C@@H]31)/C(=C\CO)C2)[C@H]54)[C@@H]69 [alcuronium] |  | effect on affinity of M2 muscarinic receptors for NMS [3]: allosterically increases the affinity of M2 muscarinic receptors in the heart for NMS
15 | CC[N+](CC)(CC)CCOc1cccc(OCC[N+](CC)(CC)CC)c1OCC[N+](CC)(CC)CC [gallamine] |  | action on heart receptors ([4]; Riker and Wescoe 1951): negative action on heart receptors; competitive antagonism for acetylcholine ([4]; subsequently established): not a competitive antagonist for acetylcholine
16 | batrachotoxin |  | allosteric effects on antagonist binding [2]: negative allosteric effects on antagonist binding
